This is an account of results in ChEMBL document CHEMBL1201862, “PubChem BioAssay data set” (2004).

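Test compounds were applied to cells in 96-well plates for 48 hours at 5 doses. Abbreviation: GI50, concentration required for 50% inhibition of growth.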 Calls of active or inactive are those of the source. Cut-off read from the data, not from the text of the source: active = GI50 up to about 1.1 µM and inactive = higher. Non-standard residues stand in square brackets, D forms with d. Square brackets hold non-standard residues; d marks the D form. Residues, ends and D or L forms follow the SMILES beside them. Peptide text beside a SMILES is read from it. * marks the point of attachment. *: point of attachment. X26 = COC1=CC(=O)N(C(=O)[C@@H](O*)C(C)C)[C@H]1Cc1ccccc1; NMeF = CN[CH](Cc1ccccc1)C(=O)O; NMeV = CN[CH](C(=O)O)C(C)C; Hexanoyl = CCCCCC(=O)*; Boc = CC(C)(C)OC(=O)*

Among the test systems are BT-549; DMS-273; HOP-18; LXFL 529; M19-MEL; SNB-78; XF498; KM-20L2.
Experiment in all cases: NCI tumour cell line growth inhibition, 48 h

Turning to `Nc1ccccc1/N=N/c1c(S(=O)(=O)O)cc2cc(S(=O)(=O)O)cc(O)c2c1O`, the GI50 in the assay on BT-549 is > 100 µM (inactive).

Consider `O=C1CCC(C(=O)O)C2=C1CCCC2` (configuration not stated), for which the GI50 with BT-549 was > 100 µM (inactive); with DMS-273 it was 17.1 µM (inactive); in the assay on HOP-18 it was > 100 µM (inactive); with LXFL 529 it was > 100 µM (inactive); with M19-MEL it was > 100 µM (inactive); with SNB-78, > 100 µM (inactive). In the assay with XF498, the GI50 is > 100 µM (inactive).

For the compound `OCC1OC(n2cnc3c(Cl)nc(Nc4ccc(Cl)c(Cl)c4)nc32)CC1O` (configuration not stated), the GI50 in the assay with BT-549 is 9.98 µM (inactive).

In the case of `CC1=CC(=O)N2C(OC[C@@H]2c2ccccc2)O1` (some centres not stated), the GI50 in the assay with HOP-18 is 20.7 µM (inactive); in the assay with KM-20L2 it was > 100 µM (inactive); with LXFL 529, > 100 µM (inactive); in the assay on M19-MEL, > 100 µM (inactive); in the assay on XF498, > 100 µM (inactive).

Turning to `CC(C)N1CN(C(C(=O)N[C@@H]2C(=O)N3C2SC(C)(C)C3C(=O)O)c2ccc(O)cc2)CSC1=S` (some centres not stated), the GI50 with DMS-273, in the assay on HOP-18, with KM-20L2, in the assay with LXFL 529, with M19-MEL and in the assay with SNB-78 was > 100 µM (inactive) in each case. Also, in the assay with XF498, the GI50 is > 100 µM (inactive).

On to `Cc1cc(C)cc(Nc2cc(O)nc(O)n2)c1`, for which the GI50 in the assay with BT-549 is > 100 µM (inactive).

Turning to `CC(N)/C(N)=N/O` (configuration not stated), the GI50 in the assay on BT-549 is > 100 µM (inactive).

On to `c1ccc(CCCCNCc2cc(CNCCCCc3ccccc3)cc(CNCCCCc3ccccc3)c2)cc1`, for which the GI50 with BT-549 is 1.63 µM (inactive).

`COc1ccc2c(C)cc(N/N=C/c3ccc(C)s3)nc2c1`: the GI50 in the assay with BT-549 was 24.3 µM (inactive).

Consider `O=C(/C=C/c1cccc(Br)c1)N1CCN(CCOC(c2ccccc2)c2ccccc2)CC1`, for which, in the assay with BT-549, the GI50 was 26.5 µM (inactive).

In the case of `O=C1C=C(c2c(-c3ccccc3)[nH]c3ccccc23)C(=O)N1c1ccccc1`, the GI50 in the assay on BT-549 was 6.73 µM (inactive).

Consider `COc1ccc(Nc2nnc(CCCCCCCCc3nnc(Nc4ccc(OC)cc4)o3)o2)cc1`, for which the GI50 in the assay on BT-549 was 80.9 µM (inactive).

Consider `CC1=NC2(C(=O)O)C3(C(=O)O)N=C(C)OC3(C(F)(F)F)C2(C(F)(F)F)O1` (configuration not stated), for which the GI50 in the assay with DMS-273, with HOP-18, with KM-20L2, with M19-MEL, in the assay on SNB-78 and in the assay on XF498 was > 100 µM (inactive) in each case.

Regarding `C=CN1CCN(c2ccccc2)P1(=O)Oc1ccccc1` (configuration not stated), the GI50 in the assay with BT-549 was > 100 µM (inactive).

Regarding `COc1ccc(Nc2nc3ccc(C(F)(F)F)cc3nc2C(=O)O)cc1`, in the assay with BT-549, the GI50 is 2.71 µM (inactive).

In the case of `O=C1C=CC(=O)c2c1ccc1c3ccccc3n(CCCCCCCCn3c4ccccc4c4ccc5c(c43)C(=O)C=CC5=O)c21`, the GI50 in the assay on BT-549 is > 100 µM (inactive).

For the compound `CC(C)C(NC(=O)OC(C)(C)C)C(=O)N(C)C(Cc1ccccc1)C(=O)N(C)C(C(=O)O)C(C)C` (stereo not drawn) (Boc-Val-[NMeF]-[NMeV]-OH; configuration not given here), the GI50 in the assay with DMS-273, with KM-20L2, in the assay on LXFL 529, in the assay on M19-MEL and in the assay with XF498 was > 100 µM (inactive) in each case.

As for `Cc1cccc2sc(NC(=O)c3cc([N+](=O)[O-])ccc3Cl)nc12`, the GI50 with BT-549 is 2.44 µM (inactive).

Take `O=C(NCCCCN(CCCNC(=O)C(F)(F)F)Cc1ccccc1)C(F)(F)F`: the GI50 in the assay on BT-549 was > 100 µM (inactive).

`CC(CC=O)Nc1nn2c(=O)c3ccccc3nc2s1` (configuration not stated): in the assay on BT-549, the GI50 was > 100 µM (inactive).

For the compound `Cl/C(=C\C=N\c1ccc(I)cc1)c1ccc2ccccc2c1`, the GI50 in the assay with BT-549 is 16.9 µM (inactive).

With `COC(CC1(CCNc2ccccc2)C(=O)N(COCC[Si](C)(C)C)c2ccccc21)OC` (configuration not stated), the GI50 in the assay on BT-549 is 17.2 µM (inactive).

Take `Nc1ccccc1N/C=C\C(=O)C(Cl)(Cl)Cl`: the GI50 with BT-549 was 22.9 µM (inactive).

Consider `CC(=O)OCC1OC(NC(=S)Nn2c(-c3ccccc3)nc3ccccc3c2=O)C(OC(C)=O)C(OC(C)=O)C1OC(C)=O` (configuration not stated), for which the GI50 in the assay with BT-549 is > 100 µM (inactive).

Regarding `O=C1N/C(=N/N=C/C(O)C(O)C(O)C(O)CO)N/C1=C\c1ccco1` (configuration not stated), in the assay with BT-549, the GI50 was > 100 µM (inactive).

On to `C=C1C(=O)OC2C1CC[C@H](C)C13OC(=O)CC1[C@@]23C` (some centres not stated), for which the GI50 in the assay with DMS-273, with LXFL 529, in the assay with M19-MEL and in the assay with SNB-78 was > 100 µM (inactive) in each case.

On to `CC(C)OP(=O)(OC(C)C)/C(=N/Nc1ccc([N+](=O)[O-])cc1)Nc1ccccc1`, for which the GI50 in the assay on DMS-273 is 25.3 µM (inactive); in the assay on KM-20L2 it was 24.2 µM (inactive); in the assay with LXFL 529, 19.5 µM (inactive); in the assay with M19-MEL, 47.2 µM (inactive); with SNB-78, 17.5 µM (inactive); in the assay with XF498, 22.2 µM (inactive).

Turning to `CCCCCNC(=O)OC1CCn2c1nc1c2C(=O)C(C)=C(N2CC2)C1=O` (configuration not stated), the GI50 with BT-549 is 1.67 µM (inactive).

In the case of `COc1cc(S(=O)(=O)N/N=C/c2cc(Br)c(O)c(OC)c2)c(OC)cc1NC(C)=O`, the GI50 with BT-549 is > 100 µM (inactive).

As for `C=C1C(=O)OC2C1C(OC(=O)/C(C)=C/C)CC1(C)C(=O)CCC(=C)C21` (configuration not stated), the GI50 with BT-549 is 6.27 µM (inactive).

For `CN(C)c1ccccc1CC(c1c[nH]c2ccccc12)c1c[nH]c2ccccc12`, the GI50 in the assay on DMS-273 was 13 µM (inactive); in the assay on KM-20L2, 10.7 µM (inactive); in the assay on M19-MEL it was 14.9 µM (inactive); in the assay with SNB-78 it was 14.4 µM (inactive); in the assay with XF498, 17.3 µM (inactive).

Turning to `C#Cc1c(C)c(/C=C/C(C)=C/C(=O)OC)n(C)c1C`, the GI50 in the assay on DMS-273 is 88.7 µM (inactive); in the assay on HOP-18, > 100 µM (inactive); with KM-20L2, 87.7 µM (inactive); in the assay on LXFL 529 it was 99.8 µM (inactive); with M19-MEL it was > 100 µM (inactive); in the assay on SNB-78 it was > 100 µM (inactive). In addition, the GI50 with XF498 was 77.3 µM (inactive).

With `CCCCCC(=O)N[C@H](C(=O)N[C@H](C(=O)N(C)[C@H](C(=O)N1CCC[C@H]1C(=O)N1CCC[C@H]1C(=O)O[C@H](C(=O)N1C(=O)C=C(OC)[C@@H]1Cc1ccccc1)C(C)C)C(C)C)C(C)C)C(C)C` (Hexanoyl-VV[NMeV]PP-X26), the GI50 with BT-549 is 59.8 µM (inactive).

As to `Cc1ccc(S(=O)(=O)NC(=O)NC(Cc2c[nH]c3ccccc23)C(=O)O)cc1` (configuration not stated), in the assay on BT-549, the GI50 is > 100 µM (inactive).

On to `Cc1ccnc2nc(-c3ccc4ccccc4c3)cc(O)c12`, for which the GI50 in the assay on BT-549 is 5.32 µM (inactive).

Regarding `C=CCN1C[C@H](C)N([C@@H](c2ccc(C(=O)N3CCCCC3)cc2)c2cccc(OC)c2)C[C@H]1C`, the GI50 with BT-549 was 32.9 µM (inactive).

For `C[C@H]1O[C@@H](C(C)(C)C)OC(=O)[C@@H]1C(OC(=O)c1ccccc1)c1cccc2ccccc12` (some centres not stated), the GI50 in the assay on BT-549 is > 100 µM (inactive).

As for `CCOC(=O)c1cn2c(n1)sc1c(Cl)c(Cl)ccc12`, in the assay on BT-549, the GI50 was 33 µM (inactive).

In the case of `CCOC(=O)NC(C(=O)OCC)(N1CCN(c2cc3c(cc2F)c(=O)c(C(=O)O)cn3CC)CC1)C(F)(F)F` (configuration not stated), the GI50 in the assay with BT-549 is > 100 µM (inactive).

Regarding `NCCCN1c2ccccc2Sc2ccc(Cl)cc21`, in the assay on BT-549, the GI50 was > 7.62 µM (inactive).

For `COC[C@@H](/N=C/c1ccc(OC)cc1)C(C)C`, in the assay with BT-549, the GI50 was > 100 µM (inactive).

`Cc1cnc2sn(-c3ccc(Oc4ccccc4)cc3)c(=O)c2c1`: the GI50 in the assay on BT-549 was 23.8 µM (inactive).

Take `CC1=C(C(=O)Nc2ccccc2)C(c2cccc3ccccc23)C(C(=O)Nc2ccccc2)=C(C)N1`: the GI50 was 19.1 µM (inactive) in the assay on DMS-273; 24 µM (inactive) in the assay with HOP-18; 19.3 µM (inactive) in the assay with KM-20L2; 15.9 µM (inactive) with LXFL 529; 19 µM (inactive) with M19-MEL; 28.7 µM (inactive) in the assay on SNB-78.

As for `O=S1(=O)OCCOS(=O)(=O)C1(Br)Cc1ccccc1`, the GI50 in the assay with DMS-273, in the assay with KM-20L2, in the assay with LXFL 529, in the assay with M19-MEL, in the assay on SNB-78 and with XF498 was > 100 µM (inactive) throughout.

In the case of `c1cc2ccc1C1NCCCN1CCN1CCCNC1c1ccc(cc1)C1NCCCN1CCN1CCCNC21` (configuration not stated), the GI50 in the assay with DMS-273 is > 100 µM (inactive); in the assay with HOP-18, > 100 µM (inactive); in the assay with KM-20L2 it was > 100 µM (inactive); in the assay on LXFL 529, 78.7 µM (inactive); in the assay with M19-MEL it was 95.7 µM (inactive); with XF498, > 100 µM (inactive).

For `CC(C)CCC[C@@H](C)[C@H]1CCC2C3CC=C4C[C@@H](Oc5c6ccccc6nc6ccccc56)CCC4C3CCC21` (some centres not stated), in the assay with BT-549, the GI50 was > 50 µM (inactive).

Regarding `COc1cc(/C=C/c2sc3ccccc3[n+]2C)ccc1N(C)C`, the GI50 with BT-549 is 0.368 µM (active).

With `COc1ccc(-c2csc(Cc3nc4ccccc4c(=O)n3-c3ccc(Cl)cc3)n2)cc1`, the GI50 with BT-549 was 45 µM (inactive).

For `COc1cc(C2C(Cl)C(=O)N2NC(=O)c2ccc(NC(C)=O)cc2)ccc1O` (configuration not stated), the GI50 in the assay on DMS-273, in the assay with KM-20L2, in the assay with LXFL 529, in the assay on M19-MEL, with SNB-78 and in the assay with XF498 was > 100 µM (inactive) each time.

Take `COc1cccc2c(=O)oc(-c3ccccc3C)nc12`: the GI50 in the assay with BT-549 is 21.5 µM (inactive).

For `CN(Cc1cc(C(C)(C)C)cc(Br)c1O)Cc1cc(C(C)(C)C)cc(Br)c1O`, in the assay with BT-549, the GI50 is 4 µM (inactive).

`CC1=N[C@@](C)(C2CC3C=CC2C3=O)COC1=O` (some centres not stated): the GI50 in the assay with BT-549 is > 100 µM (inactive).

For `CCOC(=O)c1c(-c2[nH]c(C(=O)OCc3ccccc3)c(C)c2C(=O)OCC)[nH]c(C(=O)OCc2ccccc2)c1C`, the GI50 is > 100 µM (inactive) in the assay on DMS-273; > 100 µM (inactive) in the assay on HOP-18; > 100 µM (inactive) in the assay with KM-20L2; > 100 µM (inactive) in the assay with LXFL 529; > 100 µM (inactive) in the assay with M19-MEL; 67 µM (inactive) in the assay on SNB-78.

With `COC(=O)[C@@H]1[C@H](O)[C@H](C)[C@H](O)[C@H](C)/C=C\C=C(\C)C(=O)Nc2c(C)c(OC(C)=O)c3c(c2O)C(=O)C(C)=C2OCOC(=C23)/C(C)=C/[C@@H](O)[C@H](O)[C@@H](C)[C@H]1OC(C)=O`, in the assay on BT-549, the GI50 is > 100 µM (inactive).
